Assay results taken from the NIST ThermoML archive (doi:10.1016/j.fluid.2006.12.011).

Test: xn = mol fraction of the nth substance listed
Conditions: Liquid, Vibrating tube method

C1CC[C@H]2CCCC[C@H]2C1 [cis-decahydronaphthalene] + C1CC[C@H]2CCCC[C@@H]2C1
mass density [kg/m3]
Conditions | x1 = 0.2 | x1 = 0.35 | x1 = 0.5 | x1 = 0.65 | x1 = 0.8 | x1 = 1
323.15 K, 35000 kPa | 874.9 | 878.7 | 882.3 | 886.1 | 889.8 | 894.6
323.15 K, 40000 kPa | 877.6 | 881.5 | 885.1 | 888.7 | 892.6 | 897.3
323.15 K, 45000 kPa | 880.4 | 884.2 | 887.7 | 891.4 | 895.2 | 899.9
323.15 K, 50000 kPa | 882.9 | 886.7 | 890.3 | 894 | 897.7 | 902.4
323.15 K, 55000 kPa | 885.5 | 889.2 | 892.8 | 896.4 | 900.2 | 904.8
323.15 K, 60000 kPa | 888 | 891.8 | 895.3 | 899 | 902.7 | 907.3
323.15 K, 65000 kPa | 890.5 | 894.2 | 897.7 | 901.3 | 905 | 909.6
343.15 K, 100 kPa | 837.2 | 841.1 | 844.9 | 849 | 853.2 | 857.8
343.15 K, 5000 kPa | 841.2 | 845 | 848.8 | 852.7 | 857 | 861.5
343.15 K, 10000 kPa | 845 | 848.9 | 852.5 | 856.5 | 860.6 | 865.1
343.15 K, 15000 kPa | 848.8 | 852.5 | 856.2 | 860 | 864.2 | 868.6
343.15 K, 20000 kPa | 852.2 | 855.9 | 859.6 | 863.4 | 867.5 | 871.9
343.15 K, 25000 kPa | 855.6 | 859.3 | 862.9 | 866.7 | 870.7 | 875.1
343.15 K, 30000 kPa | 858.8 | 862.6 | 866.2 | 870 | 873.9 | 878.3
343.15 K, 35000 kPa | 862 | 865.6 | 869.2 | 873 | 876.9 | 881.2
343.15 K, 40000 kPa | 865 | 868.6 | 872.2 | 875.9 | 879.8 | 884.1
343.15 K, 45000 kPa | 867.9 | 871.6 | 875.1 | 878.8 | 882.6 | 887
343.15 K, 50000 kPa | 870.8 | 874.4 | 878 | 881.6 | 885.4 | 889.7
343.15 K, 55000 kPa | 873.6 | 877.1 | 880.6 | 884.3 | 888 | 892.3
343.15 K, 60000 kPa | 876.2 | 879.7 | 883.1 | 886.9 | 890.6 | 894.9
343.15 K, 65000 kPa | 878.9 | 882.4 | 885.8 | 889.5 | 893.2 | 897.4
